Source: patent US20220340976A1, “RAPID PREDICTION OF DRUG RESPONSIVENESS” (THE BROAD INSTITUTE, INC., priority 2019, published 2022)
Several values for one entry are separate records, joined by “and”; a condition that tells them apart may be missing. Equal values may be shown once. Entries after “also recorded” stand apart in the source; their conditions may differ.

Experiments:
[1] = test system: pools of well-characterized cancer cell lines; test: MIX-Seq: scRNA-seq transcriptional response profiling of drug-treated cell line pools; format: cell-based, human; conditions: for shared viability-related signature (cell-cycle genes): across compounds, 24 hours post-treatment
Protocol: Cell line pools were made in sets of 25 cell lines. These 25 cell line pools were chosen based on doubling time and were grown in RPMI in the absence of phenol red and with 10% FBS. Cell lines were then washed with 10 mLs of PBS, and trypsinized with 1 mL trypsin which was then removed. Ten mLs of RPMI media were added to the cells post trypsinization and resuspended. Cells were then counted by a Nexcelom cellometer using 10 uL of cell suspension and 10 ul of Trypan blue. Equal numbers of cells per cell line were mixed together and spun down at 1,250 RPM for 5 minutes. Media was aspirated and the cells were resuspended in Sigma Cell Freezing media and frozen in 1 mL aliquots. This process was repeated for all of the 25 cell line pools. For MIX-Seq experiments involving larger pools, multiple 25 cell line pools were thawed in RPMI with 10% FBS, spun down and resuspended in 5 mLs of RPMI media. Cells were then counted and equal numbers were combined together on the day of plating to form larger pools of up to ˜100 cell lines.
For drug treatment experiments, cell line pools were cultured in RPMI containing 10% fetal bovine serum, in the absence of phenol red and penicillin/streptomycin. Cell line pools were validated as Mycoplasma free prior to initiating the experiment. Cell line pools were plated at 200,000 cells per well in 6 well plates containing 2 mL of RPMI culture media described above. […] Cell pools were plated ˜16-20 hours prior to drug treatment. Cells were treated with the described drugs or vehicle (DMSO) with a 0.2% final media DMSO concentration.
Generally cells were harvested after drug treatment using standard cell culture methods. Briefly, after drug treatment cells that were in suspension (presumably containing dead cells from drug treatment) were collected and reserved for addition to the adherent cell fraction. Adherent cells were washed once with 1×PBS, trypsinized in 1 mL trypsin, incubated for 3-7 minutes at 37 C, and then trypsin inactivated with 1 mL growth media. For Cell Hashing, cells were treated with TrypLE Express (ThermoFisher) instead of trypsin to reduce the amount of cell surface proteins digested that may affect the binding of Cell Hashing antibodies.
After trypsinization, adherent and suspension cells were combined for each treatment, pelleted, and resuspended in Cell Capture Buffer (lx PBS with 0.04% BSA). Cells were counted (including trypan blue non-viable cells) and resuspended at a concentration of 1,000 cells per microliter for standard loading on the Chromium Controller (10× Genomics), or at 1,500 cells per microliter for “super loaded” samples. Up to 40,000 cells were loaded per 10× channel for “super loaded” samples, with expected recovery of up to 20,000 cells per channel. Cell suspensions were captured on a 10× Chromium controller using Single Cell 3′ reagent chemistries (either version 2 or and version 3 reagents) FIG. 26.
Sequencing data were processed using 10× Cell Ranger software, run using the Cumulus cloud-based analysis framework (Li et al. 2019). Initial experiments were done with 10× Single Cell 3′ v2 chemistry, and were processed using version 2 of the Cell Ranger software. In later experiments v3 chemistry and the corresponding version 3 of Cell Ranger were used. Reads were aligned to the hg19 reference genome.
To estimate the average transcriptional response of each cell line to a perturbation, the data were first ‘sum-collapsed’—summing read counts across cells for each cell line and treatment condition—to produce a bulk RNA-seq style read counts profile for each sample (Crowell et al. 2019; Lun & Marioni 2017). […]

[2] = test system: pools of cancer cell lines; test: Single-cell heterogeneity analysis of drug responses (clustering of scRNA-seq profiles); format: cell-based, human; conditions: of the 24 cell lines in the pool, 24 hours after treatment
Description: Specifically, the edgeR quasi-likelihood approach was used (Lun et al. 2016), following the pipeline in Soneson et al. 2018, with the cell detection rate (the fraction of genes with non-zero reads detected) included as a covariate.
To identify subpopulations of bortezomib treated cells (FIGS. 4D-4F), Seurat's default methods were used to normalize the data, detect variable genes, and compute PCs (using 5000 most variable genes, and 50 PCs). Seurat's default clustering methods were then used to cluster cells for each cell line (using the 20 nearest neighbors, and a clustering resolution parameter of 0.25).
To identify sub-populations of cells from a given cell line in a consistent fashion across baseline and treatment conditions (for analysis and presentation in FIG. 19), the following procedure was employed. After restricting to cells from the target cell line, the scTransform method (Hafemeiester et al. 2019) was used to normalize the data, identify 5,000 variable genes, and regress out experimental condition as a covariate to align clusters across conditions. Seurat's default clustering methods (using the top 10 PCs, 20 nearest neighbors, and a clustering resolution parameter of 0.25) were then used to identify clusters jointly across treated and control cells.

cancer cell lines = conditions: GDSC and PRISM drug sensitivity data; cited from earlier work
[3] = test system: pools of cancer cell lines; test: Cell cycle phase analysis inferred from single-cell transcriptional profiles (MIX-Seq); format: cell-based, human; conditions: for change in proportion of cells in G2/M phase / change in proportion of cells in S phase: 24 hours post-treatment, average weighted by drug sensitivity
Protocol: Cell cycle phase classification was performed using the Seurat function CellCycleScoring, using the S- and G2M-phase gene lists reported in Tirosh et al. 2016. The change in proportion of cells in each phase between treatment and control conditions for each cell line, along with associated confidence intervals, were estimated using the prop.test R function. For FIG. 4C, aggregate scores were computed representing how each compound altered the cell cycle composition by computing weighted averages across cell lines of the change in proportion of cells in each phase, where the weights were determined by the cell lines' measured drug sensitivity (1 minus AUC, bounded between 0 and 1).
For example, characterizing the cell cycle effects of a perturbation yields important information about its MoA. Such measurements have heretofore typically been made using a FACS-based assay, which must be performed on each sample independently and cannot be used to relate cell cycle effects post hoc to other phenotypes without advanced planning. Using MIX-Seq, such measurements can be made in parallel across a pool of cell lines, inferring the cell cycle phase of each cell from its transcriptional profile (Tirosh et al. 2016).
Next, the effects of each compound on the cell cycle were systematically assessed (see Example 1 above). […] Two notable exceptions were the DNA-damaging agent gemcitabine and the CHEK1/2 inhibitor prexasertib.

[4] = 24 hours post-treatment (FIGS. 9B, 9C)

## CO[C@H]1C[C@@H]2CC[C@@H](C)[C@@](O)(O2)C(=O)C(=O)N2CCCC[C@H]2C(=O)O[C@H]([C@H](C)C[C@@H]2CC[C@@H](OCCO)[C@H](OC)C2)CC(=O)[C@H](C)/C=C(\C)[C@@H](O)[C@@H](OC)C(=O)[C@H](C)C[C@H](C)/C=C/C=C/C=C/1C [everolimus]
[1]; [4]
  gene sets enriched in across-cell-line average transcriptional response: mTOR signaling was the top down-regulated gene set

## CC(C)C[C@H](NC(=O)[C@H](Cc1ccccc1)NC(=O)c1cnccn1)B(O)O [bortezomib]
[1]; 6 hours post-treatment (FIG. 9A)
  gene sets enriched in across-cell-line average transcriptional response: strong up-regulation of protein folding and heat-shock response pathways
[1]
  shared viability-related signature (cell-cycle genes): shared signature was also apparent
[2]
  number of cell lines showing a bimodal response: 10 and 9

## CC1(C)CCC(c2ccc(Cl)cc2)=C(CN2CCN(c3ccc(C(=O)NS(=O)(=O)c4ccc(N[C@H](CCN5CCOCC5)CSc5ccccc5)c(S(=O)(=O)C(F)(F)F)c4)cc3)CC2)C1 [navitoclax]
[1]; 6 and/or 24 hours post-treatment
  robust transcriptional response signature: did not produce strong and/or selective transcriptional responses; also recorded: did not produce robust transcriptional response signatures; also recorded: a robust transcriptional response to navitoclax was not observed
Cancer cell lines
  long-term viability response across cell lines: strong selective viability responses

## COc1ccc(C2=NC(c3ccc(Cl)cc3)C(c3ccc(Cl)cc3)N2C(=O)N2CCNC(=O)C2)c(OC(C)C)c1 (centres unmarked) [nutlin]
[1]; TP53 WT cell lines (7) in a pool of 24 cell lines
  average drug-induced changes in gene expression for each cell line: robust response; also recorded: strong gene expression changes
[1]; among TP53 WT cell lines
  gene set enrichment analysis of average transcriptional response, down-regulated: down-regulation of cell cycle processes
  gene set enrichment analysis of average transcriptional response, up-regulated: clear up-regulation of genes in the TP53 downstream pathway
[1]; cell lines harboring TP53 mutations (n=17) in a pool of 24 cell lines
  average drug-induced changes in gene expression for each cell line: only minimal changes; also recorded: weak gene expression changes
[3]; pool of 24 cell lines, TP53 WT vs TP53 mutant
  change in proportion of cells in G0/G1: pronounced G0/G1-arrest phenotype selectively among the TP53 WT cell lines; also recorded: elicits G1-arrest selectively among the TP53 WT cell lines

## Cc1sc2c(c1C)C(c1ccc(Cl)cc1)=N[C@@H](CC(=O)OC(C)(C)C)c1nnc(C)n1-2 [JQ-1]
[1]
  shared viability-related signature (cell-cycle genes): shared signature was also apparent

## Nc1ccn([C@@H]2O[C@H](CO)[C@@H](O)C2(F)F)c(=O)n1 [gemcitabine]
[1]; [4]
  gene sets enriched in across-cell-line average transcriptional response: altered expression of apoptosis-related genes
[1]
  shared viability-related signature (cell-cycle genes): shared signature was also apparent
[3]
  change in proportion of cells in G2/M phase: decreased the proportion of cells in G2/M
  change in proportion of cells in S phase: increase in S-phase cells

## CC(C)(C)c1nc(-c2cccc(NS(=O)(=O)c3c(F)cccc3F)c2F)c(-c2ccnc(N)n2)s1 [dabrafenib]
[1]; BRAF-mutant melanoma cell lines, 24 hour post-treatment
  variability of transcriptional responses among sensitive cell lines: substantial variation

## COc1cccc(OCCCN)c1-c1cc(Nc2cnc(C#N)cn2)n[nH]1 [prexasertib]
[1]
  shared viability-related signature (cell-cycle genes): shared signature was also apparent
[3]
  change in proportion of cells in G2/M phase: slightly increased the fraction of G2/M cells
  change in proportion of cells in S phase: decreased the proportion of S-phase cells
